Measurements from patent US20200360531A1, “ANTIBODY DRUG CONJUGATES (ADCS) WITH NAMPT INHIBITORS” (Bayer Aktiengesellschaft, priority 2018, published 2020).
Values joined by “and” are separate entries in the source; they are usually repeats but may differ in a detail not shown here. Identical values can stand only once. Like-named read-outs stand apart in the source and are kept apart here.

Key:
U251 MG = assay: Cell proliferation assay, Cell Titer Glo (CTG) method, U251 MG; format: cell-based
Experimental: (§1) Cell Proliferation Assay for Nampt-ADCs and Nampt-SMOLs
(§2) Cell Titer Glo (CTG) Method
(§3) To this end, 75 μL per well CTG solution (Promega, catalog #G755B and G756B) was added to cells in sister plates, incubated for 10 min, and luminescence was measured on a VICTOR V instrument (Perkin Elmer). After incubation for either 72 or 96 hrs (Table 1) in the presence of test compounds, 100 μl per well CTG solution was added to all test wells, incubated for 10 min and luminescence was measured on a VICTOR V instrument. […] The DRC software is a Biobook Spreadsheet that was developed by Bayer AG and Bayer Business Services on the IDBS E-Workbook Suite platform (IDBS: ID Business Solutions Ltd., Guildford, UK).

THP-1 = assay: Cell proliferation assay, Cell Titer Glo (CTG) method, THP-1; format: cell-based, human; conditions: 72 h
Experimental: as §1, §2, §3

human NAMPT = target: T1, human NAMPT (Homo sapiens, UniProt P43490); assay: NAMPT biochemical assay (hNAMPT IC50), cascade assay with NMNAT1 and NAD/NADH-Glo detection; conditions: Table 2; replicate values on separate lines
T1 construct: N-terminally His6-tagged recombinant full length human NAMPT; His6 (N); made in house; host or cells: E. coli
From the text: NAMPT Biochemical Assay (hNAMPT IC50)
Nicotinamide phosphoribosyltransferase (NAMPT) inhibitory activity of compounds of the present invention was quantified employing a cascade assay as described in the following paragraphs. The assay couples the conversion of nicotinamide (NAM) to nicotinamide mononucleotide (NMN) by NAMPT with the conversion of NMN to […] adenine dinucleotide (NAD^+) by nicotinamide mononucleotide adenylyltransferase 1 (NMNAT1) and the subsequent quantification of the generated NAD^+ by a commercial detection kit (NAD/NADH-Glo™ Assay from Promega, #G9072).
N-terminally His6-tagged recombinant full length human NAMPT and N-terminally His6-tagged recombinant full length human NMNAT1, both expressed in E. coli and purified via Ni-NTA-affinity chromatography and consecutive size exclusion chromatography, were used as enzymes.
For the assay 50 nl of a 100 fold concentrated solution of the test compound in DMSO was pipetted into a white low volume 384 well microtiter plate (Greiner Bio-One, Frickenhausen, Germany), 2.5 μl of a solution of NAMPT in aqueous NMNAT1-containing assay buffer [50 mM Tris/HCl pH 7.5, 12 mM MgCl2, 0.6 mM adenosine-tri-phosphate (ATP), 1 nM NMNAT1, 0.02% (w/v) bovine serum albumin (Sigma-Aldrich #P7906), 0.001% (v/v) Tween-20 (Sigma-Aldrich #P7949)] were added and the mixture was incubated for 15 min at 22° C. to allow pre-binding of the test compounds to the enzyme before the start of the enzyme reaction. Then the reaction was started by the addition of 2.5 μl of a solution of NAM (300 nM=>final conc. in the 5 μl assay volume is 150 nM, Sigma-Aldrich #^47865) and 5-phosphorylribose-1-pyrophosphate pentasodium salt (PRPP, 1.2 μM=>final conc. in the 5 μl assay volume is 0.6 μM, Sigma-Aldrich P8296) in assay buffer and the resulting mixture was incubated for a reaction time of 20 min at 22° C. The concentration of NAMPT was adjusted depending of the activity of the enzyme lot and was chosen appropriate to have the assay in the linear range, typical final concentration in the 5 μl assay volume was 0.16 nM.
The resulting mixture was incubated 2 h at 22° C. to allow a steady-state of the detection system. Subsequently the generated luminescence was measured in a suitable luminescence reader, e.g. a Viewlux™ (Perkin-Elmer), and taken as a measure for the generated NAD^+.

A549 C4.4a B4 = assay: Cell proliferation assay, Cell Titer Glo (CTG) method, A549 C4.4a B4; format: cell-based, human
Experimental: as §1, §2, §3

MDA-MB-453 = assay: Cell proliferation assay, Cell Titer Glo (CTG) method, MDA-MB-453; format: cell-based
Experimental: as §1, §2, §3

[1] = Homo sapiens, U-251, 72 h, Table 2
[2] = Homo sapiens, A549, 72 h, Table 2, read-out: A549 C4.4a B4 72 h IC50
[3] = Homo sapiens, MDA-MB-453, 72 h, Table 2, read-out: MDA-MB-453 72 h IC50
[4] = Table 2, 72 h, read-out: A549 C4.4a B4 72 h IC50
[5] = Table 3 (ADCs), 72 h, read-out: A549 C4.4a 72 h IC^50
[6] = Table 3 (ADCs), DSMZ cells, 72 h, read-out: MDA-MB-453 DSMZ 72 h IC^50

T1 sequence (P43490 whole entry): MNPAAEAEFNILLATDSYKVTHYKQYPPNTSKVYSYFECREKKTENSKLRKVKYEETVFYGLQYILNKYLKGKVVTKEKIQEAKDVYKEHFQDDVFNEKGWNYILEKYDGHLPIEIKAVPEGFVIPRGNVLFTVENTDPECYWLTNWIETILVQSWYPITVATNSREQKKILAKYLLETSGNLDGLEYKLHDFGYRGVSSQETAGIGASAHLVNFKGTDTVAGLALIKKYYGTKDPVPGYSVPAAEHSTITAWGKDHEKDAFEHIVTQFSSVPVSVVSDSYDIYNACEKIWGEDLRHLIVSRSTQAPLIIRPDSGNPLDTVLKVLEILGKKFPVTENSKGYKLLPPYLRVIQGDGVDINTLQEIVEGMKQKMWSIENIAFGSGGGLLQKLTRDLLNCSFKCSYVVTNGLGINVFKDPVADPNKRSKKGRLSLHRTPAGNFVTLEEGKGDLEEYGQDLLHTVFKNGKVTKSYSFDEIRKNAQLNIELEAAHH

Compound: O=C(Nc1ccc(C2=NNC(=O)[C@@](c3cccc4ncccc34)(C(F)(F)F)C2)cc1)N1Cc2ccncc2C1 [Example 12, N-{4-[(5R)-6-oxo-5-(quinolin-5-yl)-5-(trifluoromethyl)-1,4,5,6-tetrahydropyridazin-3-yl]phenyl}-1,3-dihydro-2H-pyrrolo[3,4-c]pyridine-2-carboxamide]
- IC50 (U251 MG; [1]): < 30 pM
- IC50 (THP-1; Homo sapiens, THP-1, Table 2): < 3 pM
- IC50 (human NAMPT): 539 pM and 551 pM
- IC50 (A549 C4.4a B4; [2]): 472 pM

Compound: O=C(Nc1ccc(-c2cc(-c3ccc4[nH]ncc4c3)c(=O)n(CC(F)(F)F)n2)cc1)N1Cc2ccncc2C1 [Example 22, N-{4-[5-(1H-indazol-5-yl)-6-oxo-1-(2,2,2-trifluoroethyl)-1,6-dihydropyridazin-3-yl]phenyl}-1,3-dihydro-2H-pyrrolo[3,4-c]pyridine-2-carboxamide]
- IC50 (human NAMPT): 111 pM and 144 pM
- IC50 (A549 C4.4a B4; [2]): 4880 pM
- IC50 (MDA-MB-453; [3]): < 30 pM

Compound: NCCCCn1nc(-c2ccc(NC(=O)N3Cc4ccncc4C3)cc2)cc(-c2cccc3ncccc23)c1=O [Example 5, N-{4-[1-(4-Aminobutyl)-6-oxo-5-(quinolin-5-yl)-1,6-dihydropyridazin-3-yl]phenyl}-1,3-dihydro-2H-pyrrolo[3,4-c]pyridine-2-carboxamide]
- IC50 (human NAMPT): 147 pM and 176 pM

Compound: N-[2 or 3-{[(2R)-2-amino-2-carboxyethyl]sulfanyl}-3-carboxypropanoyl]glycyl-N-{6-[3-{4-[(1,3-dihydro-2H-pyrrolo[3,4-c]pyridine-2-carbonyl)amino]phenyl}-6-oxo-5-(quinolin-5-yl)-5,6-dihydropyridazin-1(4H)-yl]hexyl}-N^6-(26-oxo-2,5,8,11,14,17,20,23-octaoxahexacosan-26-yl)-L-lysinamide [Example 36M]
- IC50 (human NAMPT): 1030 pM and 1050 pM
- IC50 (A549 C4.4a B4; [4]): 299000 pM
- IC50 (MDA-MB-453; Table 2, 72 h, read-out: MDA-MB-453 72 h IC50): 18000 pM

Compound: O=C(Nc1ccc(-c2cc(-c3cccc4[nH]cnc34)c(=O)[nH]n2)cc1)N1Cc2ccncc2C1 [Example 26, N-{4-[5-(1H-Benzimidazol-4-yl)-6-oxo-1,6-dihydropyridazin-3-yl]phenyl}-1,3-dihydro-2H-pyrrolo[3,4-c]pyridine-2-carboxamide]
- IC50 (human NAMPT): 167 pM and 207 pM
- IC50 (A549 C4.4a B4; [2]): 111000 pM
- IC50 (MDA-MB-453; [3]): < 30 pM

Compound: NCCCCCCN1N=C(c2ccc(NC(=O)N3Cc4ccncc4C3)cc2)CC(c2ccc3cccnc3c2)C1=O (stereo not shown) [Example 45, N-{4-[1-(6-Aminohexyl)-6-oxo-5-(quinolin-7-yl)-1,4,5,6-tetrahydropyridazin-3-yl]phenyl}-1,3-dihydro-2H-pyrrolo[3,4-c]pyridine-2-carboxamide hydrogen chloride]
- IC50 (human NAMPT): 223 pM and 241 pM and 277 pM and 343 pM
- IC50 (A549 C4.4a B4; [2]): 32000 pM
- IC50 (A549 C4.4a B4; [4]): 49700 pM

Compound: O=C1NN=C(c2ccc(NC(=O)N3Cc4ccncc4C3)cc2)CC1c1cccc2ncccc12 (stereo not shown) [Example 1, N-{4-[6-Oxo-5-(quinolin-5-yl)-1,4,5,6-tetrahydropyridazin-3-yl]phenyl}-1,3-dihydro-2H-pyrrolo[3,4-c]pyridine-2-carboxamide]
- IC50 (THP-1; Homo sapiens, THP-1, Table 2): < 3 pM
- IC50 (human NAMPT): 1060 pM and 1210 pM and 1260 pM and 1390 pM

Compound: NCCCCN1N=C(c2ccc(NC(=O)N3Cc4ccncc4C3)cc2)CC(c2cccc3ncccc23)C1=O (stereo not shown) [Example 2, N-{4-[1-(4-Aminobutyl)-6-oxo-5-(quinolin-5-yl)-1,4,5,6-tetrahydropyridazin-3-yl]phenyl}-1,3-dihydro-2H-pyrrolo[3,4-c]pyridine-2-carboxamide]
- IC50 (human NAMPT): 350 pM and 365 pM

Compound: Cc1nnc(C2CC(c3ccc(NC(=O)N4Cc5ccncc5C4)cc3)=NN(CCCCCCN)C2=O)o1 (stereo not shown) [Example 11, N-{4-[1-(6-Aminohexyl)-5-(5-methyl-1,3,4-oxadiazol-2-yl)-6-oxo-1,4,5,6-tetrahydropyridazin-3-yl]phenyl}-1,3-dihydro-2H-pyrrolo[3,4-c]pyridine-2-carboxamide]
- IC50 (U251 MG; [1]): 2820 pM
- IC50 (THP-1; Homo sapiens, THP-1, Table 2): < 3 pM
- IC50 (human NAMPT): 318 pM and 379 pM
- IC50 (A549 C4.4a B4; [2]): > 300000 pM

Compound: O=C(Nc1ccc(-c2cc(-c3cccc4ncccc34)c(=O)[nH]n2)cc1)N1Cc2ccncc2C1 [Example 4, N-{4-[6-Oxo-5-(quinolin-5-yl)-1,6-dihydropyridazin-3-yl]phenyl}-1,3-dihydro-2H-pyrrolo[3,4-c]pyridine-2-carboxamide]
- IC50 (U251 MG; [1]): 146 pM
- IC50 (THP-1; Homo sapiens, THP-1, Table 2): 17.1 pM
- IC50 (human NAMPT): 1160 pM and 1220 pM
- IC50 (A549 C4.4a B4; [2]): > 300000 pM

Compound: [(32S,39S)-39-carboxy-32-({6-[(5S)-3-{4-[(1,3-dihydro-2H-pyrrolo[3,4-c]pyridine-2-carbonyl)amino]phenyl}-6-oxo-5-(quinolin-5-yl)-5,6-dihydropyridazin-1(4H)-yl]hexyl}carbamoyl)-26,34,37-trioxo-2,5,8,11,14,17,20,23-octaoxa-27,33,36-triazanonatriacontan-39-yl]sulfanediyl [Example 36Db]
- IC50 (A549 C4.4a B4; [5]): 3130 pM
- IC50 (MDA-MB-453; [6]): 7240 pM

Compound: NCCCCCCN1N=C(c2ccc(NC(=O)N3Cc4ccncc4C3)cc2)CC(c2cccc3ncccc23)C1=O (stereo not shown) [Example 3, N-{4-[1-(6-Aminohexyl)-6-oxo-5-(quinolin-5-yl)-1,4,5,6-tetrahydropyridazin-3-yl]phenyl}-1,3-dihydro-2H-pyrrolo[3,4-c]pyridine-2-carboxamide]
- IC50 (human NAMPT): 207 pM and 214 pM

Compound: O=C(Nc1ccc(C2=NNC(=O)C(c3cccc4ncccc34)(C(F)(F)F)C2)cc1)N1Cc2ccncc2C1 (racemic) [Example 14, N-{4-[6-oxo-5-(quinolin-5-yl)-5-(trifluoromethyl)-1,4,5,6-tetrahydropyridazin-3-yl]phenyl}-1,3-dihydro-2H-pyrrolo[3,4-c]pyridine-2-carboxamide]
- IC50 (human NAMPT): 317 pM and 387 pM

Compound: 2 or 3-{[(2R)-2-Amino-2-carboxyethyl]sulfanyl}-4-{[2-({6-[3-{4-[(1,3-dihydro-2H-pyrrolo[3,4-c]pyridine-2-carbonyl)amino]phenyl}-6-oxo-5-(quinolin-5-yl)pyridazin-1(6H)-yl]hexyl}amino)-2-oxoethyl]amino}-4-oxobutanoic Acid [Example 31M]
- IC50 (human NAMPT): 260 pM and 311 pM

Compound: N[C@@H](CSC1CC(=O)N(CCCCCC(=O)NCCCCCCn2nc(-c3ccc(NC(=O)N4Cc5ccncc5C4)cc3)cc(-c3cccc4ncccc34)c2=O)C1=O)C(=O)O (stereo partly drawn) [Example 29M, S-{1-[6-({6-[3-{4-[(1,3-Dihydro-2H-pyrrolo[3,4-c]pyridine-2-carbonyl)amino]phenyl}-6-oxo-5-(quinolin-5-yl)pyridazin-1(6H)-yl]hexyl}amino)-6-oxohexyl]-2,5-dioxopyrrolidin-3-yl}-L-cysteine]
- IC50 (human NAMPT): 441 pM and 637 pM

Compound: 2 or 3-{[(2R)-2-Amino-2-carboxyethyl]sulfanyl}-4-{[2-({6-[3-{4-[(1,3-dihydro-2H-pyrrolo[3,4-c]pyridine-2-carbonyl)amino]phenyl}-6-oxo-5-(quinolin-5-yl)-5,6-dihydropyridazin-1(4H)-yl]hexyl}amino)-2-oxoethyl]amino}-4-oxobutanoic Acid [Example 30M]
- IC50 (U251 MG; Table 3 (ADCs), 72 h, read-out: U-251 72 h IC^50): > 300000 pM
- IC50 (THP-1; Table 3 (ADCs), read-out: THP-1 72 h IC^50): 81100 pM
- IC50 (A549 C4.4a B4; [5]): > 300000 pM
- IC50 (MDA-MB-453; [6]): 9960 pM

Compound: NCCCCCCN1N=C(c2ccc(NC(=O)N3Cc4ccncc4C3)cc2)CC(c2cccc3ncccc23)(C(F)(F)F)C1=O (stereo not shown) [Example 15, N-{4-[1-(6-Aminohexyl)-6-oxo-5-(quinolin-5-yl)-5-(trifluoromethyl)-1,4,5,6-tetrahydropyridazin-3-yl]phenyl}-1,3-dihydro-2H-pyrrolo[3,4-c]pyridine-2-carboxamide]
- IC50 (human NAMPT): 309 pM and 363 pM
- IC50 (MDA-MB-453; [3]): < 30 pM
